Reference: US12479843B2, “Spiro ring-containing quinazoline compounds” (WIGEN BIOMEDICINE TECHNOLOGY (SHANGHAI) CO., LTD., priority 2019, dated 2025)

Assays:
pERK level in H358 cells = test: pERK and ERK protein content assay in H358 cells (ELISA); type: cell-based; conditions: Homo sapiens, NCI-H358, compound 1 μM, 24 h, pERK/ERK ratio compared with DMSO group, read-out: Inhibition rate (%) of pERK level
Method: H358 cells were seeded in a 24-well plate. After one day of growth, a test compound (at a concentration of 1 μM) was added. After 24 h of action of the compound, the cells were lysed, and the cell lysate was transferred to a 96-well ELISA plate. The levels of pERK and ERK in the lysate were measured using an ELISA kit (abcam 176660). The ratio of pERK to ERK was calculated and compared with that of the DMSO group, and the percentage of inhibition of pERK activity by the compound was calculated.

H358 cells = test: Antiproliferative activity against H358 cells (Cell Titer Glow, ultra-low attachment plate); type: cell-based; conditions: Homo sapiens, NCI-H358, 72 h, 96-well ultra-low attachment plate, three days after addition of compound, Cell Titer Glow
Method: 2500 H358 cells were seeded in a 96-well ultra-low attachment plate (corning, 7007). After one day of growth, a serially diluted compound (a maximum concentration of 5 μM, 5-fold dilution, a total of five doses) was added. Three days after the addition of the compound, Cell Titer Glow (Promega, G9681) was added to evaluate pellet growth, and the IC50 value was calculated.

| SMILES | inhibition at 1 µM (pERK level in H358 cells) [%] | IC50 (H358 cells) [nM] |
| --- | --- | --- |
| C=C(F)C(=O)N1CC2(CCN(c3nc(OC4CCN(CCOC)CC4)nc4c(OCC(F)F)c(-c5c(C)ccc6[nH]ncc56)c(C5CC5)cc34)CC2)C1 [Compound 3] | > 90 | < 300 |
| C=Cc1cc2c(N3CCC4(CC3)CN(C(=O)C(=C)F)C4)nc(OC3CCN(CCOC)CC3)nc2c(OCC)c1-c1c(C)ccc2[nH]ncc12 [Compound 4] | > 90 | < 300 |
| C=CC(=O)N1CC2(CCN(c3nc(OC4CCN(CCOC)CC4)nc4c(N(C)CC(F)(F)F)c(-c5c(C)ccc6[nH]ncc56)c(C5CC5)cc34)CC2)C1 [Compound 7] | 50 to 90 | 300 to 1000 |
| C=CC(=O)N1CC2(CCN(c3nc(OC4CCN(CCOC)CC4)nc4c(N5CCC5)c(-c5c(C)ccc6[nH]ncc56)c(C5CC5)cc34)CC2)C1 [Compound 8] | 50 to 90 | 300 to 1000 |
| C=CC(=O)N1CC2(CCN(c3nc(OC4CCN(CCOC)CC4)nc4c(N5CC(F)(F)C5)c(-c5c(C)ccc6[nH]ncc56)c(C5CC5)cc34)CC2)C1 [Compound 9] | > 90 | < 300 |
| C=CC(=O)N1CC2(CCN(c3nc(OC4CCN(CCOC)CC4)nc4c(OCC(F)(F)F)c(-c5c(C)ccc6[nH]ncc56)ccc34)CC2)C1 [Compound 10] | 50 to 90 | 300 to 1000 |
| C=CC(=O)N1CC2(CCN(c3nc(OC4CCN(CCOC)CC4)nc4c(OCC(F)(F)F)c(-c5c(C)ccc6[nH]ncc56)c(F)cc34)CC2)C1 [Compound 11] | > 90 | < 300 |
| C=CC(=O)N1CC2(CCN(c3nc(OC4CCN(CCOC)CC4)nc4c(OCC(F)(F)F)c(-c5c(C)ccc6[nH]ncc56)c(Cl)cc34)CC2)C1 [Compound 12] | > 90 | < 300 |
| C=CC(=O)N1CC2(CCN(c3nc(OC4CCN(CCOC)CC4)nc4c(OCC(F)(F)F)c(-c5c(C)ccc6[nH]ncc56)c(C)cc34)CC2)C1 [Compound 13] | > 90 | 300 to 1000 |
| C=CC(=O)N1CC2(CCN(c3nc(OC4CCN(CCOC)CC4)nc4c(OCC(F)(F)F)c(-c5c(C)ccc6[nH]ncc56)c(CC)cc34)CC2)C1 [Compound 14] | > 90 | 300 to 1000 |
| C=CC(=O)N1CC2(CCN(c3nc(OC4CCN(CCOC)CC4)nc4c(OCC(F)(F)F)c(-c5c(C)ccc6[nH]ncc56)c(C(C)C)cc34)CC2)C1 [Compound 15] | > 90 | < 300 |
| C#Cc1cc2c(N3CCC4(CC3)CN(C(=O)C=C)C4)nc(OC3CCN(CCOC)CC3)nc2c(OCC(F)(F)F)c1-c1c(C)ccc2[nH]ncc12 [Compound 16] | 50 to 90 | 300 to 1000 |
| C=C(C)C(=O)N1CC2(CCN(c3nc(OC4CCN(CCOC)CC4)nc4c(OCC(F)(F)F)c(-c5c(C)ccc6[nH]ncc56)c(C5CC5)cc34)CC2)C1 [Compound 17] | > 90 | < 300 |
| C=C(C#N)C(=O)N1CC2(CCN(c3nc(OC4CCN(CCOC)CC4)nc4c(OCC(F)(F)F)c(-c5c(C)ccc6[nH]ncc56)c(C5CC5)cc34)CC2)C1 [Compound 18] | 50 to 90 | 300 to 1000 |
| C=C(C(=O)N1CC2(CCN(c3nc(OC4CCN(CCOC)CC4)nc4c(OCC(F)(F)F)c(-c5c(C)ccc6[nH]ncc56)c(C5CC5)cc34)CC2)C1)C(F)(F)F [Compound 19] | 50 to 90 | 300 to 1000 |
| C=C(C(=O)N1CC2(CCN(c3nc(OC4CCN(CCOC)CC4)nc4c(OCC(F)(F)F)c(-c5c(C)ccc6[nH]ncc56)c(C5CC5)cc34)CC2)C1)c1cnccn1 [Compound 20] | > 90 | < 300 |
| C=C(C(=O)N1CC2(CCN(c3nc(OC4CCN(CCOC)CC4)nc4c(OCC(F)(F)F)c(-c5c(C)ccc6[nH]ncc56)c(C5CC5)cc34)CC2)C1)c1cncnc1 [Compound 21] | > 90 | < 300 |

| SMILES | inhibition at 1 µM (pERK level in H358 cells) [%] | IC50 (H358 cells) [nM] |
| --- | --- | --- |
| C=C(C(=O)N1CC2(CCN(c3nc(OC4CCN(CCOC)CC4)nc4c(OCC(F)(F)F)c(-c5c(C)ccc6[nH]ncc56)c(C5CC5)cc34)CC2)C1)n1ccnc1 [Compound 22] | 50 to 90 | 300 to 1000 |
| C=C(C(=O)N1CC2(CCN(c3nc(OC4CCN(CCOC)CC4)nc4c(OCC(F)(F)F)c(-c5c(C)ccc6[nH]ncc56)c(C5CC5)cc34)CC2)C1)n1cncn1 [Compound 23] | > 90 | < 300 |
| C=C(C(=O)N1CC2(CCN(c3nc(OC4CCN(CCOC)CC4)nc4c(OCC(F)(F)F)c(-c5c(C)ccc6[nH]ncc56)c(C5CC5)cc34)CC2)C1)n1cccc1 [Compound 24] | 50 to 90 | 300 to 1000 |
| C=C(C(=O)N1CC2(CCN(c3nc(OC4CCN(CCOC)CC4)nc4c(OCC(F)(F)F)c(-c5c(C)ccc6[nH]ncc56)c(C5CC5)cc34)CC2)C1)n1ccnn1 [Compound 25] | > 90 | < 300 |
| C=CC(=O)N1CC2(C1)CN(c1nc(OC3CCN(CCOC)CC3)nc3c(OCC(F)(F)F)c(-c4c(C)ccc5[nH]ncc45)c(C4CC4)cc13)C2 [Compound 26] | 50 to 90 | 300 to 1000 |
| C=CC(=O)N1CCC2(CC1)CN(c1nc(OC3CCN(CCOC)CC3)nc3c(OCC(F)(F)F)c(-c4c(C)ccc5[nH]ncc45)c(C4CC4)cc13)C2 [Compound 27] | 50 to 90 | 300 to 1000 |
| C=C(F)C(=O)N1CC2(CCN(c3nc(OC4CCN(CCOC)CC4)nc4c(OCC(F)(F)F)c(-c5c(F)ccc6cn[nH]c56)c(C5CC5)cc34)CC2)C1 [Compound 34] | > 90 | < 300 |
| C=CC(=O)N1CC2(CCN(c3nc(OC4CCN(CCOC)CC4)nc4c(OCC(F)(F)F)c(-c5c(F)ccc6[nH]cnc56)c(C5CC5)cc34)CC2)C1 [Compound 37] | 50 to 90 | 300 to 1000 |
| C=C(F)C(=O)N1CC2(CCN(c3nc(OC4CCN(CCOC)CC4)nc4c(OCC(F)(F)F)c(-c5c(F)ccc6[nH]cnc56)c(C5CC5)cc34)CC2)C1 [Compound 38] | > 90 | 300 to 1000 |
| C=CC(=O)N1CC2(CCN(c3nc(OC4CCN(CCOC)CC4)nc4c(OCC(F)(F)F)c(-c5c(C)ccc6[nH]nnc56)c(C5CC5)cc34)CC2)C1 [Compound 39] | > 90 | < 300 |
| C=C(F)C(=O)N1CC2(CCN(c3nc(OC4CCN(CCOC)CC4)nc4c(OCC(F)(F)F)c(-c5c(C)ccc6[nH]nnc56)c(C5CC5)cc34)CC2)C1 [Compound 40] | > 90 | < 300 |
| C=CC(=O)N1CC2(CCN(c3nc(OC4CCN(CCOC)CC4)nc4c(OCC(F)(F)F)c(-c5c(C)ccc6cc[nH]c(=O)c56)c(C5CC5)cc34)CC2)C1 [Compound 41] | > 90 | < 300 |
| C=C(F)C(=O)N1CC2(CCN(c3nc(OC4CCN(CCOC)CC4)nc4c(OCC(F)(F)F)c(-c5c(C)ccc6cc[nH]c(=O)c56)c(C5CC5)cc34)CC2)C1 [Compound 42] | > 90 | 300 to 1000 |
| C=CC(=O)N1CC2(CCN(c3nc(OC4CCN(CCOC)CC4)nc4c(OCC(F)(F)F)c(-c5c(C)ccc6nc[nH]c(=O)c56)c(C5CC5)cc34)CC2)C1 [Compound 43] | > 90 | < 300 |
| C=C(F)C(=O)N1CC2(CCN(c3nc(OC4CCN(CCOC)CC4)nc4c(OCC(F)(F)F)c(-c5c(C)ccc6nc[nH]c(=O)c56)c(C5CC5)cc34)CC2)C1 [Compound 44] | > 90 | < 300 |
| C=CC(=O)N1CC2(CCN(c3nc(OC4CCN(CCOC)CC4)nc4c(OCC(F)(F)F)c(-c5c(O)cccc5F)c(C5CC5)cc34)CC2)C1 [Compound 45] | > 90 | < 300 |
